Target: T1, Recombinant human cathepsin K (Homo sapiens, UniProt P43235)
T1 construct: made in house
T1 sequence (P43235 115-329): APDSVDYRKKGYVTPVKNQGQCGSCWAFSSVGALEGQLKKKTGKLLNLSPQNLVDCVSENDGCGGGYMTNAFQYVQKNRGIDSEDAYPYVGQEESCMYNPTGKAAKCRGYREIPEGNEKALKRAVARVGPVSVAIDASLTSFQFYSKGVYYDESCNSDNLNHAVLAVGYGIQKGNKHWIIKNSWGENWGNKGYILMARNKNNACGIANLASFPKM
Test: Kinetic measurements, hydrolysis of the fluorogenic substrate Z-FR↓AMC (general modifier mechanism)
Format: biochemical
Design: key to α (coefficient, effect of modifier on the affinity for the substrate) / β (coefficient, effect of modifier on the catalytic rate): dimensionless coefficients multiplying KS (α) and kcat (β)
Method: All modifiers were tested for their effect on the hydrolysis of the low molecular mass synthetic substrate Z-FR↓AMC. Since all progress curves were linear from the beginning of the reaction, initial velocities were calculated from the slopes by linear regression. […] The basic mechanism considered for the analysis of the interactions was the general modifier mechanism shown in Figure 2, in which the effect of modifier is determined by the values of the coefficients α and β that multiply the kinetic parameters K S, K A (α) and k cat (β). In the thermodynamic box embodied in Figure 2, the reciprocal of the coefficient α represents the allosteric coupling constant that characterizes energy linkage between the modifier and the substrate, while a […] represents the effect exerted by the modifier on catalysis. The specific velocity plot was used for the primary screening of the kinetic behavior of the modifiers (Equation 2), as it allows an immediate judgment of the type of interaction and to gather preliminary estimates of the coefficients α and β, as well as of the dissociation constant of the modifier. Refinement was then performed by fitting the rate Equation 1 to data.
Figure 3 Kinetic mechanisms of the identified modifiers. All compounds were characterized by a combination of specific velocity plots (upper panels) and titration curves recorded at fixed substrate concentrations (lower panels). All experiments were performed at 25±1°C in 100 mM sodium acetate buffer pH 5.50 containing 1 mM EDTA and 2.5 mM DTT using the fluorogenic substrate Z-FR↓AMC and at a final enzyme concentration of 0.5 nM.
All kinetic measurements were performed in 100 mM sodium acetate buffer pH 5.50 containing 1 mM EDTA and 2.5 mM dithiothreitol (DTT) in single-use acrylic cuvettes (1×1 cm) thermostatted at 25±1°C with magnetic stirring. The hydrolysis of Z-FR↓AMC was followed fluorometrically at λex 383 nm and λem 455 nm. All tested modifiers were analyzed spectroscopically to determine their absorption properties under the conditions used in the assays. When necessary, appropriate corrections were made to the calculated reaction rates to take into account the inner filter effect.
The effects of the modifiers on enzymatic activity were analyzed with the general modifier mechanism which describes the interaction between enzyme (E), substrate (S) and modifier (A), as shown in Figure 2. Assuming that binding of A to E and ES is at quasi-equilibrium and that steady-state conditions are established in the fluxes around ES and ESA (i.e. the catalytic steps), the reaction rate for the mechanism in Figure 2 is defined by Equation 1: [drawing 2] (1) where v 0 is the reaction rate in the absence of modifier, K A is the equilibrium dissociation constant of the EA complex, α and β are dimensionless coefficients and σ = [S]/K m, approximated to [S]/K s. To determine the mechanism of interaction, plot the kinetic data and calculate preliminary values of the interaction parameters, the specific velocity plot was used. For this purpose, Equation 1 is rewritten as:
The plot of v 0/v A versus σ/(1+σ) produces straight lines with intersection points at v 0/v A = 1, regardless of the interaction mechanism. The parameters α, β and K A are determined by replotting the extrapolated values of the straight lines at σ/(1+σ) = 0 (a) and σ/(1+σ) = 1 (b) versus 1/[A] in the form: [drawing 4] (3) [drawing 5] (4)

Compound: OC(c1cc(-c2ccc(C(F)(F)F)cc2)nc(C(F)(F)F)c1)C1CCCCN1 (stereo not drawn) [Compound 2, Piperidin-2-yl-[2-(trifluoromethyl)-6-[4-(trifluoromethyl)phenyl]pyridin-4-yl] methanol]
- Z-FRAMC: geometric mean of residual activities (vA) (at 0.1×Km and 10×Km substrate, modifier 10×KA, calculated with Equation 1 from α and β of Table 3, unmodified enzyme = 1.00): 0.42
- β (coefficient, effect of modifier on the catalytic rate) (substrate Z-FR↓AMC, pH 5.50, 25°C, 0.5 nM enzyme): 0.74±0.13
- Kd (substrate Z-FR↓AMC, pH 5.50, 25°C, 0.5 nM enzyme, read-out: K A (equilibrium dissociation constant of the EA complex)): 150 ± 50 µM

From PMC4153677, “Probing the Activity Modification Space of the Cysteine Peptidase Cathepsin K with Novel Allosteric Modifiers” (PLoS ONE, 2014)
